Measurements taken from patent publication US20230172204A1 (BASF SE, priority 2020, published 2023).

Legend:
[1] = system: Phakopsora pachyrhizi (F129L); assay: Protective control of soybean rust on soybeans (PHAKPA P2); format: in vivo; conditions: soybean rust F129L; for % PHAKPA (F129L) Disease level P2 at 4 ppm: protective P2, 4 ppm; for % PHAKPA (F129L) Disease level P2 at 16 ppm: protective P2, 16 ppm
[2] = system: Phakopsora pachyrhizi (F129L); assay: Protective control of soybean rust on soybeans (PHAKPA P6); format: in vivo; conditions: soybean rust F129L; for % PHAKPA (F129L) Disease level P6 at 4 ppm: protective P6, 4 ppm; for % PHAKPA (F129L) Disease level P6 at 16 ppm: protective P6, 16 ppm

SMILES	% PHAKPA (F129L) Disease level P2 at 4 ppm [1] [%]	% PHAKPA (F129L) Disease level P2 at 16 ppm [1] [%]	% PHAKPA (F129L) Disease level P6 at 4 ppm [2] [%]	% PHAKPA (F129L) Disease level P6 at 16 ppm [2] [%]
CNC(=O)/C(=N/OC)c1cccc(C)c1CO/N=C(\C)c1cccc(OC(F)F)c1 [compound 81]	6	0	2	0
CNC(=O)/C(=N/OC)c1cccc(C)c1CO/N=C(\C)c1cccc(F)c1 [compound 85]	1	0	0	0
CO/N=C(/C(=O)OC)c1cccc(C)c1CO/N=C(\C)c1cc(F)cc(F)c1 [compound 87]	8	0	7	0
CNC(=O)/C(=N/OC)c1cccc(C)c1CO/N=C(\C(C)=O)c1cccc(C(F)(F)F)c1 [compound 93]	83	32	43	37
CO/N=C(/C(=O)OC)c1cccc(C)c1CO/N=C(\C)c1cc(C)cc(C)c1 [compound 94]	22	5	35	2
CO/N=C(/C(=O)OC)c1cccc(C)c1CO/N=C(\C)c1cccc(C(C)C)c1 [compound 95]	11	0	33	4
CO/N=C(/C(=O)OC)c1cccc(C)c1CO/N=C(\C)c1cccc(C(C)(C)C)c1 [compound 96]	6	1	3	0
CO/N=C(/C(=O)OC)c1cccc(C)c1CO/N=C(\C)c1cccc(-c2ccccc2)c1 [compound 97]	4	1	1	0
CNC(=O)/C(=N/OC)c1cccc(C)c1CO/N=C(\C)c1cccc(-c2ccccc2)c1 [compound 98]	3	0	1	0
CNC(=O)/C(=N/OC)c1cccc(C)c1CO/N=C(\C)c1cc(C)cc(C)c1 [compound 99]	43	12	87	33
CNC(=O)/C(=N/OC)c1cccc(C)c1CO/N=C(\C)c1cccc(C(C)(C)C)c1 [compound 100]	18	0	25	4
CO/N=C(/C(=O)OC)c1cccc(C)c1CO/N=C(\C)c1cc(C)cc(Cl)c1 [compound 101]	70	37	60	17
CO/N=C(/C(=O)OC)c1cccc(C)c1CO/N=C(\C)c1ccc(Cl)c(C)c1 [compound 102]	60	11	90	43
CO/N=C(/C(=O)OC)c1cccc(C)c1CO/N=C(\C)c1ccc(F)cc1 [compound 103]	40	3	35	4
CNC(=O)/C(=N/OC)c1cccc(C)c1CO/N=C(\C)c1cccc(C(C)C)c1 [compound 105]	18	1	39	13
CNC(=O)/C(=N/OC)c1cccc(C)c1CO/N=C(\C)c1cc(C)cc(Cl)c1 [compound 106]	5	1	32	9
CNC(=O)/C(=N/OC)c1cccc(C)c1CO/N=C(\C)c1ccc(Cl)c(C)c1 [compound 107]	1	0	15	1
CNC(=O)/C(=N/OC)c1cccc(C)c1CO/N=C(\C)c1ccc(F)cc1 [compound 108]	1	0	1	0
CNC(=O)/C(=N/OC)c1cccc(C)c1CO/N=C(\C)c1ccc(C)c(Cl)c1 [compound 109]	8	1	12	0

SMILES	% PHAKPA (F129L) Disease level P2 at 4 ppm [1] [%]	% PHAKPA (F129L) Disease level P2 at 16 ppm [1] [%]	% PHAKPA (F129L) Disease level P6 at 4 ppm [2] [%]	% PHAKPA (F129L) Disease level P6 at 16 ppm [2] [%]
CO/N=C(/C(=O)OC)c1cccc(C)c1CO/N=C(\C)c1cc(Cl)cc(Cl)c1F [compound 110]	20	3	30	1
CO/N=C(/C(=O)OC)c1cccc(C)c1CO/N=C(\C)c1ccc(-c2ccccc2)cc1 [compound 111]	28	8	46	10
CNC(=O)/C(=N/OC)c1cccc(C)c1CO/N=C(\C)c1cccc(C#N)c1 [compound 112]	13	3	30	9
CO/N=C(/C(=O)OC)c1cccc(C)c1CO/N=C(\C)c1ccc(Br)cc1 [compound 114]	38	5	52	15
CO/N=C(/C(=O)OC)c1cccc(C)c1CO/N=C(\C)c1ccccc1C [compound 115]	83	63	92	75
CO/N=C(/C(=O)OC)c1cccc(C)c1CO/N=C(\C)c1ccccc1Cl [compound 116]	85	57	85	67
CO/N=C(/C(=O)OC)c1cccc(C)c1CO/N=C(\C)c1cc(Cl)ccc1Cl [compound 117]	85	10	88	12
CO/N=C(/C(=O)OC)c1cccc(C)c1CO/N=C(\C)c1cc(F)ccc1F [compound 118]	10	0	32	0
CO/N=C(/C(=O)OC)c1cccc(C)c1CO/N=C(\C)c1ccccc1Br [compound 119]	93	63	92	63
CO/N=C(/C(=O)OC)c1cccc(C)c1CO/N=C(\C)c1ccccc1-c1ccccc1 [compound 121]	100	98	98	92
C#Cc1ccccc1/C(C)=N/OCc1c(C)cccc1/C(=N\OC)C(=O)OC [compound 122]	100	73	93	90
CO/N=C(/C(=O)OC)c1cccc(C)c1CO/N=C(\C)c1ccccc1OC [compound 123]	100	82	90	78
CNC(=O)/C(=N/OC)c1cccc(C)c1CO/N=C(\C)c1ccccc1-c1ccccc1 [compound 124]	98	87	92	75
C#Cc1ccccc1/C(C)=N/OCc1c(C)cccc1/C(=N\OC)C(=O)NC [compound 125]	72	9	90	44
CNC(=O)/C(=N/OC)c1cccc(C)c1CO/N=C(\C)c1ccccc1C [compound 127]	90	44	93	62
CNC(=O)/C(=N/OC)c1cccc(C)c1CO/N=C(\C)c1ccccc1Cl [compound 128]	32	2	77	2
CO/N=C(/C(=O)OC)c1cccc(C)c1CO/N=C(\C)c1ccc(F)c(F)c1 [compound 129]	28	1	24	2
CNC(=O)/C(=N/OC)c1cccc(C)c1CO/N=C(\C)c1ccc(F)c(F)c1 [compound 132]	1	0	6	0
